Source: patent US20200390100A1, “SUBSTITUTED N-HETEROCYCLYL- AND N-HETEROARYL-TETRAHYDROPYRIMIDINONES AND THE SALTS THEREOF, AND THE USE OF SAME AS HERBICIDAL ACTIVE SUBSTANCES” (Bayer Aktiengesellschaft, priority 2017, published 2020)

Tests used:
Pharbitis purpurea [1] = test: Post-emergence herbicidal action, greenhouse, 320 g/ha; type: in vivo; settings: application rate 320 g/ha, rated visually after about 3 weeks vs untreated controls
Method in brief: (§1)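 Plants treated post-emergence at the one-leaf stage, 2 to 3 weeks after sowing in sandy loam, with WP or EC formulations plus 0.5% additive at 320 g/ha. Visual rating about 3 weeks later versus untreated controls (100% = dead, 0% = like control).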

Stellaria media [2] = test: as above; type: in vivo; settings: application rate 320 g/ha, rated visually after about 3 weeks vs untreated controls
Method in brief: as §1

Hordeum murinum [3] = test: as above; type: in vivo; settings: application rate 320 g/ha, rated visually after about 3 weeks vs untreated controls
Method in brief: as §1

Digitaria sanguinalis = test: as above; type: in vivo; settings: application rate 320 g/ha, rated visually after about 3 weeks vs untreated controls
Method in brief: as §1

Abutilon theophrasti [4] = test: as above; type: in vivo; settings: application rate 320 g/ha, rated visually after about 3 weeks vs untreated controls
Method in brief: as §1

Polygonum convolvulus [5] = test: as above; type: in vivo; settings: application rate 320 g/ha, rated visually after about 3 weeks vs untreated controls
Method in brief: as §1

Viola tricolor [6] = test: as above; type: in vivo; settings: application rate 320 g/ha, rated visually after about 3 weeks vs untreated controls
Method in brief: as §1

Matricaria inodora [7] = test: as above; type: in vivo; settings: application rate 320 g/ha, rated visually after about 3 weeks vs untreated controls
Method in brief: as §1

Veronica persica [8] = test: as above; type: in vivo; settings: application rate 320 g/ha, rated visually after about 3 weeks vs untreated controls
Method in brief: as §1

Setaria viridis [9] = test: as above; type: in vivo; settings: application rate 320 g/ha, rated visually after about 3 weeks vs untreated controls
Method in brief: as §1

Alopecurus myosuroides [10] = test: as above; type: in vivo; settings: application rate 320 g/ha, rated visually after about 3 weeks vs untreated controls
Method in brief: as §1

Amaranthus retroflexus [11] = test: as above; type: in vivo; settings: application rate 320 g/ha, rated visually after about 3 weeks vs untreated controls
Method in brief: as §1

Pharbitis purpurea [12] = test: Pre-emergence herbicidal action, greenhouse, 320 g/ha; type: in vivo; settings: application rate 320 g/ha, Table B12
Method in brief: (§2)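 Sow seeds in soil-filled pots, cover. Spray compound (WP/EC, aqueous, +0.5% additive) on covering soil. Hold under good growth conditions ~3 wk. Score % effect visually vs untreated.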

Avena fatua = test: as above; type: in vivo; settings: application rate 320 g/ha, scored visually after about 3 weeks vs untreated controls
Method in brief: as §2

Stellaria media [13] = test: as above; type: in vivo; settings: application rate 320 g/ha, scored visually after about 3 weeks vs untreated controls
Method in brief: as §2

Hordeum murinum [14] = test: as above; type: in vivo; settings: application rate 320 g/ha, Table B14
Method in brief: as §2

Abutilon theophrasti [15] = test: as above; type: in vivo; settings: application rate 320 g/ha, scored visually after about 3 weeks vs untreated controls
Method in brief: as §2

Echinochloa crus-galli [16] = test: as above; type: in vivo; settings: application rate 320 g/ha, scored visually after about 3 weeks vs untreated controls
Method in brief: as §2

Polygonum convolvulus [17] = test: as above; type: in vivo; settings: application rate 320 g/ha, scored visually after about 3 weeks vs untreated controls
Method in brief: as §2

Viola tricolor [18] = test: as above; type: in vivo; settings: application rate 320 g/ha, Table B8
Method in brief: as §2

Matricaria inodora [19] = test: as above; type: in vivo; settings: application rate 320 g/ha, scored visually after about 3 weeks vs untreated controls
Method in brief: as §2

Veronica persica [20] = test: as above; type: in vivo; settings: application rate 320 g/ha, Table B13
Method in brief: as §2

Setaria viridis [21] = test: as above; type: in vivo; settings: application rate 320 g/ha, Table B11
Method in brief: as §2

Alopecurus myosuroides [22] = test: as above; type: in vivo; settings: application rate 320 g/ha, scored visually after about 3 weeks vs untreated controls
Method in brief: as §2

Amaranthus retroflexus [23] = test: as above; type: in vivo; settings: application rate 320 g/ha, scored visually after about 3 weeks vs untreated controls
Method in brief: as §2

Lolium rigidum [24] = test: Post-emergence herbicidal action, greenhouse, 320 g/ha; type: in vivo; settings: application rate 320 g/ha, rated visually after about 3 weeks vs untreated controls
Method in brief: as §1

photosystem II (PS II) = target: T1, photosystem II (PS II) (Spinacia oleracea, UniProt P69560); test: Measurement of PS II activity in thylakoid membranes (DCPIP reduction); type: biochemical, spinach; settings: PS II activity in spinach thylakoid membranes, Table E1; read-out: Effect
T1 construct: the chloroplasts were osmotically ruptured and the thylakoid membranes were then obtained by centrifugation; from tissue; host or cells: fresh spinach leaves; thylakoid membrane preparation from isolated chloroplasts
Method in brief: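 Thylakoid membranes from osmotically ruptured spinach chloroplasts in 50 mM phosphate pH 6.8, 10 mM KCl; compounds added from 100 μM DMSO solution (2.5% DMSO final), 120 μM DCPIP final. DCPIP reduction under light tracked as absorbance decrease at 595 nm over 10 min at 22 °C; % inhibition binned, metribuzin as plate standard.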

Stellaria media [25] = test: Herbicidal pre-emergence action (Part 2), 1280 g/ha; type: in vivo; settings: application rate 1280 g/ha, scored visually after about 3 weeks, Table D8
Method in brief: (§3)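 Visual percent activity, scored roughly 3 weeks after treatment relative to untreated pots (100% meaning plants died), is reported. Compounds as wettable powders or emulsion concentrates with 0.5% additive were applied to the soil surface over freshly sown seeds at 600 L water/ha.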

Poa annua [26] = test: as above; type: in vivo; settings: application rate 1280 g/ha, scored visually after about 3 weeks, Table D3
Method in brief: as §3

Abutilon theophrasti [27] = test: as above; type: in vivo; settings: application rate 1280 g/ha, scored visually after about 3 weeks, Table D5
Method in brief: as §3

Echinochloa crus-galli [28] = test: as above; type: in vivo; settings: application rate 1280 g/ha, scored visually after about 3 weeks, Table D1
Method in brief: as §3

Lolium rigidum [29] = test: as above; type: in vivo; settings: application rate 1280 g/ha, scored visually after about 3 weeks, Table D2
Method in brief: as §3

Matricaria inodora [30] = test: as above; type: in vivo; settings: application rate 1280 g/ha, scored visually after about 3 weeks, Table D7
Method in brief: as §3

Setaria viridis [31] = test: as above; type: in vivo; settings: application rate 1280 g/ha, scored visually after about 3 weeks, Table D4
Method in brief: as §3

Amaranthus retroflexus [32] = test: as above; type: in vivo; settings: application rate 1280 g/ha, scored visually after about 3 weeks, Table D6
Method in brief: as §3

Stellaria media [33] = test: Herbicidal post-emergence action (Part 2), 1280 g/ha; type: in vivo; settings: application rate 1280 g/ha, rated visually after about 3 weeks, Table C7
Method in brief: (§4)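 Post-emergence greenhouse test: one-leaf-stage weeds (2–3 wk after sowing, sandy loam) sprayed onto green parts; WP/EC in water + 0.5% additive, 600 L/ha. Visual rating ~3 wk, 0–100% vs untreated.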

Poa annua [34] = test: as above; type: in vivo; settings: application rate 1280 g/ha, rated visually after about 3 weeks, Table C2
Method in brief: as §4

Abutilon theophrasti [35] = test: as above; type: in vivo; settings: application rate 1280 g/ha, rated visually after about 3 weeks, Table C4
Method in brief: as §4

Echinochloa crus-galli [36] = test: as above; type: in vivo; settings: post-emergence (Part 2), application rate 1280 g/ha, rated visually after about 3 weeks vs untreated controls
Method in brief: as §4

Matricaria inodora [37] = test: as above; type: in vivo; settings: application rate 1280 g/ha, rated visually after about 3 weeks, Table C6
Method in brief: as §4

Setaria viridis [38] = test: as above; type: in vivo; settings: application rate 1280 g/ha, rated visually after about 3 weeks, Table C3
Method in brief: as §4

Amaranthus retroflexus [39] = test: as above; type: in vivo; settings: application rate 1280 g/ha, rated visually after about 3 weeks, Table C5
Method in brief: as §4

Structure (SMILES)	Pharbitis purpurea (efficacy in %) (Pharbitis purpurea [1])	Stellaria media (efficacy in %) (Stellaria media [2])	Hordeum murinum (efficacy in %) (Hordeum murinum [3])	Abutilon theophrasti (efficacy in %) (Abutilon theophrasti [4])	Polygonum convolvulus (efficacy in %) (Polygonum convolvulus [5])	Viola tricolor (efficacy in %) (Viola tricolor [6])	Matricaria inodora (efficacy in %) (Matricaria inodora [7])	Veronica persica (efficacy in %) (Veronica persica [8])	Setaria viridis (efficacy in %) (Setaria viridis [9])	Amaranthus retroflexus (efficacy in %) (Amaranthus retroflexus [11])	Pharbitis purpurea (efficacy in %) (Pharbitis purpurea [12])	Avena fatua (efficacy in %) (Avena fatua)	Stellaria media (efficacy in %) (Stellaria media [13])	Hordeum murinum (efficacy in %) (Hordeum murinum [14])	Abutilon theophrasti (efficacy in %) (Abutilon theophrasti [15])	Echinochloa crus-galli (efficacy in %) (Echinochloa crus-galli [16])	Polygonum convolvulus (efficacy in %) (Polygonum convolvulus [17])	Viola tricolor (efficacy in %) (Viola tricolor [18])	Matricaria inodora (efficacy in %) (Matricaria inodora [19])	Veronica persica (efficacy in %) (Veronica persica [20])	further results
CC(C)CC(=O)OC1CCN(C)C(=O)N1c1cc(C(C)(C)C)on1 (centres unmarked) [I.7-162, 3-(5-tert-Butyl-1,2-oxazol-3-yl)-1-methyl-2-oxohexahydropyrimidin-4-yl 3-methylbutanoate]	100%	100%	80%	100%	90%	100%	100%	90%	100%	100%	100%	100%	100%	90%	100%	80%	90%	100%	100%	80%	Digitaria sanguinalis (efficacy in %) (Digitaria sanguinalis): 80%; Alopecurus myosuroides (efficacy in %) (Alopecurus myosuroides [10]): 90%; Setaria viridis (efficacy in %) (Setaria viridis [21]): 100%; Alopecurus myosuroides (efficacy in %) (Alopecurus myosuroides [22]): 90%; Amaranthus retroflexus (efficacy in %) (Amaranthus retroflexus [23]): 100%
CCC(=O)OC1CCN(C)C(=O)N1c1cc(C(C)(C)C)on1 (centres unmarked) [I.3-162, 3-(5-tert-Butyl-1,2-oxazol-3-yl)-1-methyl-2-oxohexahydropyrimidin-4-yl Propionate]	100%	100%	90%	100%	100%	100%	100%	90%	90%	100%	100%	100%	90%	90%	100%	80%	100%	100%	100%	100%	Lolium rigidum (efficacy in %) (Lolium rigidum [24]): 80%; Setaria viridis (efficacy in %) (Setaria viridis [21]): 100%; Alopecurus myosuroides (efficacy in %) (Alopecurus myosuroides [22]): 80%; Amaranthus retroflexus (efficacy in %) (Amaranthus retroflexus [23]): 100%; inhibition at 100 µM (photosystem II (PS II)): 50 to 70%
CC(C)C(=O)OC1CCN(C)C(=O)N1c1cc(C(C)(C)C)on1 (centres unmarked) [I.5-162]	–	–	–	–	–	–	–	–	–	–	–	–	–	–	–	–	–	–	–	–	Stellaria media (Stellaria media [25]): 100%; Poa Annua (Poa annua [26]): 100%; Abutilon theophrasti (Abutilon theophrasti [27]): 100%; Echinochloa crus-galli (Echinochloa crus-galli [28]): 100%; Lolium rigidum (Lolium rigidum [29]): 90%; Matricaria inodora (Matricaria inodora [30]): 100%; Setaria viridis (Setaria viridis [31]): 100%; Amaranthus retroflexus (Amaranthus retroflexus [32]): 100%; Stellaria media (Stellaria media [33]): 100%; Poa Annua (Poa annua [34]): 100%; Abutilon theophrasti (Abutilon theophrasti [35]): 100%; Echinochloa crus-galli (Echinochloa crus-galli [36]): 100%; Matricaria inodora (Matricaria inodora [37]): 100%; Setaria viridis (Setaria viridis [38]): 100%; Amaranthus retroflexus (Amaranthus retroflexus [39]): 100%
